How the values were obtained:
[1] = test system: breast cancer cell line MX-1; test: MX-1 cell line proliferation assay; type: cell-based; settings: MX-1 cells, 3-day proliferation assay, Cell Titer Glo; read-out: Cellular proliferation: EC50
Method: MX-1 Cell Line Proliferation Assay
The impact of compounds of the Examples on cancer cell proliferation was determined using the breast cancer cell line MX-1 (ATCC) in a 3-day proliferation assay and the data are reported in Table 1. MX-1 cells were maintained in RPMI 1640 medium (Sigma) supplemented with 10% FBS at 37 C.° and an atmosphere of 5% CO2. For compound testing, MX-1 cells were plated in 96-well black bottom plates at a density of 5000 cells/well in 90 μL of culture media and incubated at 37° overnight to allow cell adhesion and spreading. Compound dilution series were prepared in DMSO via a 3-fold serial dilution from 3 mM to 0.1 μM. The DMSO dilution series were then diluted 1:100 in phosphate buffered saline, and 10 μL of the resulted solution were added to the appropriate wells of the MX-1 cell plate. The final compound concentrations in the wells were 3, 1, 0.3, 0.1, 0.03, 0.01, 0.003, 0.001, 0.0003, and 0.0001 μM or 1, 0.3, 0.1, 0.03, 0.01, 0.003, 0.001, 0.0003, 0.0001, and 0.00003 μM.
Luminescence readings from the Cell Titer Glo assay were normalized to the DMSO treated cells and analyzed using the GraphPad Prism software with sigmoidal curve fitting to obtain EC50s. The minimum significant ratio (MSR) was determined to evaluate assay reproducibility (Eastwood et al., (2006) J Biomol Screen, 11: 253-261). The overall MSR was determined to be 2.1 and a moving MSR (last six run MSR overtime) has been <2.

BRD4 (BDI_K57-E168) = target: T1, BRD4 (BDI_K57-E168) (Homo sapiens, UniProt O60885); test: TR-FRET bromodomain binding assay, first bromodomain of BRD4; settings: 100 nM probe
T1 construct: BD1: amino acids K57-E168; made in house
How it was run: (§1)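 Compound dilutions are mixed with His-tagged BRD4 bromodomain (8 nM), europium anti-His antibody (1 nM) and Alexa647 probe (BDI 100 nM; BDII 30 nM) in pH 6.0 buffer containing 2% DMSO. After equilibrating one hour at room temperature, TR-FRET is measured; percent inhibition is fitted to obtain IC50, from which Ki is calculated.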

BRD4 (BDII_E352-M457) = target: T2, BRD4 (BDII_E352-M457) (Homo sapiens, UniProt O60885); test: TR-FRET bromodomain binding assay, second bromodomain of BRD4; settings: 30 nM probe
T2 construct: protocol; made in house
How it was run: as §1

[2] = TR-FRET assay protocol G (compound 0.92 μM-15 pM)
[3] = TR-FRET assay protocol E (compound 9.19 μM-150 pM)

| Compound | EC50 [1] [nM] | Ki (BRD4 (BDI_K57-E168); [2]) [nM] | Ki (BRD4 (BDII_E352-M457); [2]) [nM] | Ki (BRD4 (BDI_K57-E168); [3]) [nM] | Ki (BRD4 (BDII_E352-M457); [3]) [nM] |
| --- | --- | --- | --- | --- | --- |
| Cn1cc2c3c(c[nH]c3c1=O)C(CCC(O)CO)N(c1ccc(F)cc1F)c1ccc(CS(C)(=O)=O)cc1-2 (stereo not drawn) [Example 140, 4-(2,4-difluorophenyl)-3-(3,4-dihydroxybutyl)-10-methyl-7-((methylsulfonyl)methyl)-3,4-dihydro-1H-1,4,10-triazadibenzo[cd,f]azulen-11(10H)-one] | 936 | 9.99 | 2.24 |  |  |
| CNC(=O)c1cc(CS(C)(=O)=O)cc2c1N(c1ccc(F)cc1F)Cc1c[nH]c3c(=O)n(C)cc-2c13 [Example 241, 4-(2,4-difluorophenyl)-N,10-dimethyl-7-((methylsulfonyl)methyl)-11-oxo-3,4,10,11-tetrahydro-1H-1,4,10-triazadibenzo[cd,f]azulene-5-carboxamide] | 51.5 | 3.07 | 1.76 |  |  |
| Cn1cc2c3c(c[nH]c3c1=O)CN(c1ccc(F)cc1)c1ncc(F)cc1-2 [Example 32, 7-fluoro-4-(4-fluorophenyl)-10-methyl-3,4-dihydro-1H-1,4,5,10-tetraazadibenzo[cd,f]azulen-11(10H)-one] | 1.38 | 1.01 | 1.14 |  |  |
| CCOC(=O)c1[nH]c2c(=O)n(C)cc3c2c1CN(c1ccc(F)cc1F)c1ccc(CS(C)(=O)=O)cc1-3 [Example 208, ethyl 4-(2,4-difluorophenyl)-10-methyl-7-((methylsulfonyl)methyl)-11-oxo-3,4,10,11-tetrahydro-1H-1,4,10-triazadibenzo[cd,f]azulene-2-carboxylate] | 10.7 | 3.41 | 1.15 |  |  |
| Cn1cc2c3c(c[nH]c3c1=O)CN(CC1CC1)c1ncc(S(N)(=O)=O)cc1-2 [Example 10, 4-(cyclopropylmethyl)-10-methyl-11-oxo-3,4,10,11-tetrahydro-1H-1,4,5,10-tetraazadibenzo[cd,f]azulene-7-sulfonamide] | 60.8 |  |  | 6.94 | 5.99 |
| Cn1cc2c3c(c[nH]c3c1=O)CN(c1ccc(F)cc1)c1ncc(N)cc1-2 [Example 21, 7-amino-4-(4-fluorophenyl)-10-methyl-3,4-dihydro-1H-1,4,5,10-tetraazadibenzo[cd,f]azulen-11(10H)-one] | 1.05 | 4.43 | 3 |  |  |
| CCS(=O)(=O)c1ccc2c(c1)-c1cn(C)c(=O)c3[nH]cc(c13)CN2[C@H](C)c1ccccc1 [Example 265, (R)-7-(ethylsulfonyl)-10-methyl-4-(1-phenylethyl)-3,4-dihydro-1H-1,4,10-triazadibenzo[cd,f]azulen-11(10H)-one] | 170 | 25.6 | 4.21 |  |  |
| CN(C)CCCC1c2c[nH]c3c(=O)n(C)cc(c23)-c2cc(CS(C)(=O)=O)ccc2N1c1ccc(F)cc1F (racemic) [Example 175, 4-(2,4-difluorophenyl)-3-(3-(dimethylamino)propyl)-10-methyl-7-((methylsulfonyl)methyl)-3,4-dihydro-1H-1,4,10-triazadibenzo[cd,f]azulen-11(10H)-one] | 99.9 | 15 | 1.9 |  |  |
| Cn1cc2c3c(c[nH]c3c1=O)C(CCN1C(=O)c3ccccc3C1=O)N(c1ccc(F)cc1F)c1ccc(CS(C)(=O)=O)cc1-2 (racemic) [Example 227, 2-(2-(4-(2,4-difluorophenyl)-10-methyl-7-((methylsulfonyl)methyl)-11-oxo-3,4,10,11-tetrahydro-1H-1,4,10-triazadibenzo[cd,f]azulen-3-yl)ethyl)isoindoline-1,3-dione] | 134 | 7.94 | 1.18 |  |  |
| Cn1cc2c3c(c[nH]c3c1=O)CN(C(=O)CC(C)(C)C)c1c(F)cc(F)cc1-2 [Example 169, 4-(3,3-dimethylbutanoyl)-5,7-difluoro-10-methyl-3,4-dihydro-1H-1,4,10-triazadibenzo[cd,f]azulen-11(10H)-one] | 69.9 | 12.4 | 4.67 |  |  |
| CCCCN1Cc2c[nH]c3c(=O)n(C)cc(c23)-c2cc(F)cc(F)c21 [Example 47, 4-butyl-5,7-difluoro-10-methyl-3,4-dihydro-1H-1,4,10-triazadibenzo[cd,f]azulen-11(10H)-one] | 8.33 | 1.37 | 1.27 |  |  |
| COC1CCN(C(=O)C2c3c[nH]c4c(=O)n(C)cc(c34)-c3cc(CS(C)(=O)=O)ccc3N2c2ccc(F)cc2)CC1 (stereo not drawn) [Example 40] | 398 | 29.4 | 136 |  |  |
| Cn1cc2c3c(c[nH]c3c1=O)C(CCCOc1ccccc1)N(c1ccc(F)cc1F)c1ccc(CS(C)(=O)=O)cc1-2 [Example 145, (R)-4-(2,4-difluorophenyl)-10-methyl-7-((methylsulfonyl)methyl)-3-(3-phenoxypropyl)-3,4-dihydro-1H-1,4,10-triazadibenzo[cd,f]azulen-11(10H)-one] | 80.6 | 55.1 | 1.38 |  |  |
| 4-(2-fluoropyridin-4-yl)-10-methyl-7-((methylsulfonyl)methyl)-3,4-dihydro-1H-1,4,10-triazadibenzo[cd,f]azulen-11(10H)-one [Example 254] | 3.9 | 1.12 | 0.71 |  |  |
| 3-(4-(2,4-difluorophenyl)-10-methyl-7-((methylsulfonyl)methyl)-11-oxo-3,4,10,11-tetrahydro-1H-1,4,10-triazadibenzo[cd,f]azulen-3-yl)propanamide [Example 99] | 165 | 15.5 | 1.66 |  |  |
| Cc1ccc(OC(=O)N2Cc3c[nH]c4c(=O)n(C)cc(c34)-c3cc(CS(C)(=O)=O)ccc32)cc1 [Example 91, p-tolyl 10-methyl-7-((methylsulfonyl)methyl)-11-oxo-10,11-dihydro-1H-1,4,10-triazadibenzo[cd,f]azulene-4(3H)-carboxylate] | 1.81 | 3.27 | 1.15 |  |  |
| COC(=O)CCCN1Cc2c[nH]c3c(=O)n(C)cc(c23)-c2cc(F)cc(F)c21 [Example 50, methyl 4-(5,7-difluoro-10-methyl-11-oxo-10,11-dihydro-1H-1,4,10-triazadibenzo[cd,f]azulen-4(3H)-yl)butanoate] | 42.2 | 3.44 | 5.51 |  |  |
| COc1cc(OC)cc(C2c3c[nH]c4c(=O)n(C)cc(c34)-c3cc(CS(C)(=O)=O)ccc3N2c2ccc(F)cc2F)c1 (stereo not drawn) [Example 222, 4-(2,4-difluorophenyl)-3-(3,5-dimethoxyphenyl)-10-methyl-7-((methylsulfonyl)methyl)-3,4-dihydro-1H-1,4,10-triazadibenzo[cd,f]azulen-11(10H)-one] | 160 | 170 | 29.4 |  |  |
| CN(C)C(=O)c1cc(CS(C)(=O)=O)cc2c1N(c1ccc(F)cc1F)Cc1c[nH]c3c(=O)n(C)cc-2c13 [Example 242, 4-(2,4-difluorophenyl)-N,N,10-trimethyl-7-((methylsulfonyl)methyl)-11-oxo-3,4,10,11-tetrahydro-1H-1,4,10-triazadibenzo[cd,f]azulene-5-carboxamide] | > 1000 | 12.6 | 3.78 |  |  |
| COC(=O)NC1CCC(N2Cc3c[nH]c4c(=O)n(C)cc(c34)-c3cc(CS(C)(=O)=O)ccc32)CC1 (stereo not drawn) [Example 224, methyl (4-(10-methyl-7-((methylsulfonyl)methyl)-11-oxo-10,11-dihydro-1H-1,4,10-triazadibenzo[cd,f]azulen-4(3H)-yl)cyclohexyl)carbamate] | 5.84 | 1.64 | 1.4 |  |  |
| Cn1cc2c3c(c[nH]c3c1=O)CN(S(=O)(=O)C1CC1)c1ccc(CS(C)(=O)=O)cc1-2 [Example 172, 4-(cyclopropylsulfonyl)-10-methyl-7-((methylsulfonyl)methyl)-3,4-dihydro-1H-1,4,10-triazadibenzo[cd,f]azulen-11(10H)-one] | 551 | 57.8 | 12.8 |  |  |
| COCCCC1c2c[nH]c3c(=O)n(C)cc(c23)-c2cc(CS(C)(=O)=O)ccc2N1c1ccc(F)cc1F (stereo not drawn) [Example 147, 4-(2,4-difluorophenyl)-3-(3-methoxypropyl)-10-methyl-7-((methylsulfonyl)methyl)-3,4-dihydro-1H-1,4,10-triazadibenzo[cd,f]azulen-11(10H)-one] | 20.3 | 7.02 | 0.97 |  |  |

From US10035800B2 (AbbVie Inc., priority 2013, dated 2018)
